Laboratory results taken from patent publication US10046005B2, “Composition and method of use for combinations of anti-viral protease, polymerase inhibitors and natural bioactive compounds in the treatment of hepatitis C infection” (priority 2014, dated 2018).

What was measured:
HCV = HCV viral entry into human host cells; format: cell-based
[1] = Dissolution of Catvira film coated tablets (Ribavirin and Sofosbuvir released); format: physicochemical
Procedure: • 1.1. Description: Yellow to deep yellow, oblong, biconvex, film coated tablets • 1.2. Determination of Average of Weight: (Limit: 1000 mg±5%) Proceed as BP2014 • 1.3. Determination of Disintegration Time: (Limit: NMT 30 min) Proceed as USP 35 • 1.4. Determination of Dissolution test for Sofosbuvir and Ribavirin:— Conditions of Dissolution:— • USP Apparatus: II (Paddle) • Speed: […] & Materials:— • Methanol HPLC Grade. • Acetonitrile HPLC Grade • Tetrahydrofuran HPLC Grade. • Ammonium acetate • Sofosbuvir and Ribavirin working standard. Apparatus & Equipement:— • Calibrated Analytical balance accurate to±0.1 mg • HPLC:—Waters UV detector or equivalent • Column: Symmetry (C18 (5 μm) 4.6×250 mm) or equivalent. • Sonicator with temperature control • Volumetric flasks • Pipettes class A Chromatographic Conditions:— • Column: Symmetry (C18 (5 μm) 4.6×250 mm) or equivalent. • Flow rate: 0.8 ml/min. • Detector: UV at λ242 nm • Injection volume: 10 μl • Mobile phase: (Acetonitrile: Tetrahydrofuran: Ammonium Acetate) (10:40:50) • Acetate Buffer: into 1000 ml volumetric flask, weight 1 gm of Ammonium Acetate buffer, add 900 ml purified water shake to dissolve then complete to the volume by the same solvent, adjust pH 3.5 by Glacial Acetic acid. […]

SMILES | Dissolution ([1]; pH 1.2, 5 min) | Dissolution ([1]; pH 1.2, 10 min) | Dissolution ([1]; pH 1.2, 15 min) | Dissolution ([1]; pH 1.2, 20 min) | Dissolution ([1]; pH 1.2, 30 min) | Dissolution ([1]; pH 1.2, 45 min) | Dissolution ([1]; pH 1.2, 60 min) | Dissolution ([1]; pH 1.2, 90 min) | Dissolution ([1]; pH 4.5, 5 min) | Dissolution ([1]; pH 4.5, 10 min) | Dissolution ([1]; pH 4.5, 15 min) | Dissolution ([1]; pH 4.5, 20 min) | Dissolution ([1]; pH 4.5, 30 min) | Dissolution ([1]; pH 4.5, 45 min) | Dissolution ([1]; pH 4.5, 60 min) | Dissolution ([1]; pH 4.5, 90 min) | Dissolution ([1]; pH 6.8, 5 min) | Dissolution ([1]; pH 6.8, 10 min) | Dissolution ([1]; pH 6.8, 15 min) | Dissolution ([1]; pH 6.8, 20 min) | further results
O=C(O[C@@H]1Cc2c(O)cc(O)cc2O[C@@H]1c1cc(O)c(O)c(O)c1)c1cc(O)c(O)c(O)c1 [EGCG, (−)-Epigallocatechin Gallate] | – | – | – | – | – | – | – | – | – | – | – | – | – | – | – | – | – | – | – | – | HCV viral entry into human host cells (HCV): effectively suppressed
NC(=O)c1ncn([C@@H]2O[C@H](CO)[C@@H](O)[C@H]2O)n1 [Ribavirin, 1-[(2R,3R,4S,5R)-3,4-dihydroxy-5-(hydroxymethyl)oxolan-2-yl]-1H-1,2,4-triazole-3-carboxamide] | 25.34% | 43.13% | 62.29% | 80.69% | 100.74% | 101.36% | 101.87% | 101.97% | 29.46% | 47.54% | 68.75% | 85.33% | 101.35% | 101.42% | 102.72% | 102.97% | 59.24% | 76.73% | 88.40% | 92.31% | Dissolution ([1]; pH 6.8, 30 min): 93.23%; Dissolution ([1]; pH 6.8, 45 min): 93.09%; Dissolution ([1]; pH 6.8, 60 min): 93.31%; Dissolution ([1]; pH 6.8, 90 min): 94.02%
CC(C)OC(=O)[C@H](C)N[P@](=O)(OC[C@H]1O[C@@H](n2ccc(=O)[nH]c2=O)[C@](C)(F)[C@@H]1O)Oc1ccccc1 [Sofosbuvir, Isopropyl (2S)-2-[(2R, 3R, 4R, 5R)-5-(2,4-dioxopyrimidin-1-yl)-4-fluoro-3-hydroxy-4-methyl-tetrahydrofuran-2-yl] methoxy-phenoxy-phosphoryl] amino] propanoate] | 13.82% | 28.77% | 44.57% | 63.43% | 85.39% | 86.07% | 88.13% | 90.79% | 15.00% | 33.94% | 52.46% | 74.22% | 98.95% | 100.44% | 101.08% | 102.04% | 36.18% | 65.56% | 83.04% | 97.55% | Dissolution ([1]; pH 6.8, 30 min): 99.80%; Dissolution ([1]; pH 6.8, 45 min): 100.04%; Dissolution ([1]; pH 6.8, 60 min): 100.47%; Dissolution ([1]; pH 6.8, 90 min): 100.39%
